The subject of data set [1] is Escherichia coli ATCC 25922.
Data set [2] deals with Enterococcus faecalis ATCC 29212. As to conditions: Table 1; broth microdilution, Nutrient Broth 0.5×, overnight 37 °C; minimum of three independent experiments.
The subject of data set [3] is Acinetobacter baumanii ATCC 17878. As to conditions: Table 1; broth microdilution, Nutrient Broth 0.5×, overnight 37 °C; minimum of three independent experiments.
Data set [4] has as its system Pseudomonas aeruginosa PAO1. The note with it: for MBC: PAO1; for MBC/MIC: Table 2, Pseudomonas aeruginosa PAO1.
Data set [5] relates to Salmonella enteriditis 706 RIVM.
Data set [6] has as its system Pseudomonas aeruginosa PA14.
The subject of data set [7] is Staphylococcus aureus ATCC 6538P. As to conditions: ATCC 6538.
For data set [8], the system named is Pseudomonas aeruginosa RP73 (clinical isolate). The note with it: RP73 (clinical isolate).
Another data set has as its system HCoV-229E. The note with it: Vero cells; for antiviral activity against HCoV-229E: co-treatment assay, from 50 μM peptide.
The test system of data set [9] is Staphylococcus aureus ATCC 6538P. As to conditions: for MBC: ATCC 6538; for MBC/MIC: Table 2, Staphylococcus aureus ATCC 6538P.
The format of data set [10] is physicochemical. An excerpt: The six peptides were produced in the recombinant form by using a previously described strategy that exploit the frog protein onconase (ONC) as a carrier to drive the peptide to inclusion bodies. The fusion proteins were expressed in Escherichia coli strain BL21DE3, using the pET22b(+) vector and named: ONC-DCless-H6-(P)FIBα-GVV27, ONC-DCless-H6-(P)FIBα-SFR22, ONC-DCless-H6-(P)FIBβ-GVV28, ONC-DCless-H6-(P)FIBβ-NWK23, ONC-DCless-H6-(P)FIBγ-GII30, ONC-DCless-H6-(P)FIBγ-TWK25 (nucleotide and amino acid sequences are reported in Supplementary Figure S1). […] Peptides were released by hydrolysis of an acidic labile “Asp-Pro” sequence leading to recombinant peptides endowed with an additional Pro residue at the N-terminus. Thus, the recombinant forms of these peptides are herein named (P)FIBα-GVV27, (P)FIBα-SFR22, (P)FIBβ-GVV28, (P)FIBβ-NWK23, (P)FIBγ-GII30, (P)FIBγ-TWK25. Hydrolysis efficiencies of 95% were estimated for all the recombinant proteins (Supplementary Figure S3). To purify the recombinant peptides from the hydrolysis mixtures, the carrier and the uncleaved fusion protein were selectively precipitated by increasing the pH to 7 exploiting the fact that ONC is insoluble at pH higher than 5, whereas most AMPs are soluble also at neutral pH. […] Therefore, purification of (P)FIBα-SFR22, (P)FIBα-GVV27, (P)FIBβ-NWK23 and (P)FIBγ-TWK25 was first performed by selective precipitation, to remove the carrier and the uncleaved fusion protein, followed by Reverse Phase High-Performance Liquid Chromatography (RP-HPLC) on a C18 column, whereas purification of (P)FIBβ-GVV28 and (P)FIBγ-GII30 was performed directly by RP-HPLC omitting the selective precipitation step. Final yields of all recombinant peptides ranged from approximately 6 to 12 mg per liter of LB culture. Peptide purity, as determined by RP-HPLC, typically varied between 95% and 99% (Supplementary Figure S4).
Peptides (P)FIBα-GVV27, (P)FIBα-SFR22, (P)FIBβ-NWK23 and (P)FIBγ-TWK25 were separated from the carrier and the uncleaved fusion proteins as previously described. The hydrolysis mixture was neutralized to pH 7–7.2 by adding 1 M NH3 and incubated for 1 h at 25 °C under nitrogen atmosphere in a water bath. […] Supernatant and insoluble fraction were analyzed by SDS-PAGE. Concentration of the peptide into the soluble fraction was determined by spectrophotometric analyses using extinction coefficients (Supplementary Table S1) calculated by the ProtParam tool. After the selective precipitation step, purification of the peptide was performed by RP-HPLC. The linear gradients used are listed in Supplementary Table S2. Purification of (P)FIBβ-GVV28 and (P)FIBγ-GII30 was performed directly by RP-HPLC, omitting the selective precipitation step. Purified peptides were lyophilized and dissolved in deionized water. Samples were stored at −80 °C under nitrogen atmosphere. Purity of peptides was evaluated by RP-HPLC on Europa Protein 300 C18 column (5 μm, 25 × 1) using the linear gradients listed in Supplementary Table S2. The identity of the peptides was confirmed by mass spectrometry.

Data set [11] relates to P. aeruginosa PAO1 biofilm. Kind of data set: Antibiofilm attachment assay, confocal microscopy. The note with it: peptide 20 µM added with bacteria, stained after 4 h, Live/Dead BacLight, three independent experiments, t-test vs control.
The test system of data set [12] is Salmonella typhimurium ATCC 14028. Kind of data set: MIC, broth microdilution. Type of data set: cell-based. As to conditions: Table 1; broth microdilution, Nutrient Broth 0.5×, overnight 37 °C; minimum of three independent experiments.
Description: MIC values were determined on Gram-positive and Gram-negative bacteria by the broth microdilution method for antimicrobial peptides previously described [33, 89] with minor modifications.
Bacterial strains were grown in Luria-Bertani (LB) medium overnight at 37 °C and then diluted in Nutrient Broth at a final concentration of ~5 × 10^5 CFU/mL per well. Twofold serial dilutions of peptides were carried out in the test wells to obtain concentrations ranging from 50 μM to 0.05 μM. Plates were incubated overnight at 37 °C.
MIC value was defined as the lowest concentration at which growth was inhibited. Three independent experiments were performed for each MIC value.
In data set [13] the test system is Pseudomonas aeruginosa PAO1. The note with it: PAO1.
For data set [14], the system named is Klebsiella pneumonia ATCC 700603. The note with it: ATCC 700603.
The test system of data set [15] is P. aeruginosa PAO1 biofilm. Kind of data set: Antibiofilm detachment assay, confocal microscopy. The note with it: peptide 20 µM on 24 h pre-formed biofilm, further 24 h, Live/Dead BacLight, three independent experiments.
[16] abbreviates: Table 1, broth microdilution, Nutrient Broth 0.5×, overnight 37 °C, minimum of three independent experiments.

Where two headings read alike, the source gives them in different places. Ends that are not written are not given here.

Consider 3 substances from paper PMC12469503, “Exploring the Antimicrobial and Antiviral Properties of Cryptic Peptides from Human Fibrinogen” (International Journal of Molecular Sciences, 2025).

With “H-PGIIWATWKTRWYSMKKTTMKIIPFNRLTIG [(P)FIBγ-GII30]”, in data set [1] (ATCC 25922), the “MIC E. coli” value worked out at 12.5 µM. In addition, the “MIC E. fae.” value in [2] is given as 6.25 µM. In addition, the “MIC A. bau.” value in data set [3] is given as 6.25 µM. In data set [4], the minimal bactericidal concentration (MBC) was 12.5 µM and the MBC/MIC is on record as 1. Moreover, in [5], the “MIC S. ent.” value came out at 12.5 µM. The “MIC PA14” value in data set [6] (setting [16]) stood at 6.25 µM. Besides, the “MIC S. aur.” value in [7] is listed as 6.25 µM. Also, the “MIC RP73” value in data set [8] was 3.12 µM. The “antiviral activity against HCoV-229E” value in the data set with HCoV-229E is “strong antiviral activity”. Also, the IC50 in the data set on HCoV-229E (read-out: IC50 against HCoV-229E, virus pre-treatment assay (virus incubated with peptide at 37 °C before infection)) amounted to 1300 nM. In [9], this substance came in with a minimum bactericidal concentration (MBC) of 6.25 µM and an MBC/MIC of 1. Moreover, in data set [10], the “solubility / aggregation at pH 7” value is “particularly prone to aggregation and precipitation”. The “fluorescence signal of SYTO 9 (live cells), attachment assay” value (from here on “fluorescence signal”) in data set [11] is reported as “significantly reduced”. Further, the “MIC S. typ.” value in data set [12] worked out at 6.25 µM. In data set [13], the “MIC PAO1” value is recorded as 12.5 µM. In addition, the “MIC K. pne.” value in data set [14] turned out to be 25 µM.
As to “H-PGVVWVSFRGADYSLRAVRMKIRPLVTQ [(P)FIBα-GVV27]”, in [1] (ATCC 25922), the “MIC E. coli” value came out at 12.5 µM. The “MIC E. fae.” value in [2] was determined as 6.25 µM. Also, the “MIC A. bau.” value in data set [3] is 6.25 µM. Moreover, in [4], the minimal bactericidal concentration (MBC) turned out to be 6.25 µM and the MBC/MIC is 1. In addition, in data set [5], the “MIC S. ent.” value came to 12.5 µM. In [6] (setting [16]), the “MIC PA14” value was 6.25 µM. Moreover, the “MIC S. aur.” value in [7] was 6.25 µM. The “MIC RP73” value in data set [8] was found to be 3.12 µM. In addition, in the data set with HCoV-229E, the “antiviral activity against HCoV-229E” value was “strong antiviral activity”. Moreover, in data set [9], the MBC came to 6.25 µM and the MBC/MIC stood at 1. Also, the “solubility / aggregation at pH 7” value in [10] was “soluble at pH 7”. The “fluorescence signal” value in data set [11] is “significantly reduced”. Also, in data set [12], the “MIC S. typ.” value was determined as 6.25 µM. The “MIC PAO1” value in data set [13] is reported as 6.25 µM. Further, the “MIC K. pne.” value in [14] is 50 µM. Further, the “SYTO 9 / PI signal, detachment assay” value in data set [15] is listed as “reduction of the SYTO 9 signal coupled with an increase of the PI signal”.
Take “H-PNWKGSWYSMRKMSMKIRPFFPQQ [(P)FIBβ-NWK23]”: the “MIC E. coli” value in data set [1] (Table 1, broth microdilution, Nutrient Broth 0.5×, ~5 × 10^5 CFU/mL, overnight 37 °C, minimum of three independent experiments) turned out to be 6.25 µM. Moreover, the “MIC E. fae.” value in data set [2] came to 6.25 µM. Moreover, the “MIC A. bau.” value in data set [3] was 6.25 µM. Further, in data set [4], the minimal bactericidal concentration (MBC) was 6.25 µM and the MBC/MIC was determined as 1. In data set [5], the “MIC S. ent.” value came out at 12.5 µM. Also, in data set [6] (PA14), the “MIC PA14” value came out at 3.12 µM. The “MIC S. aur.” value in data set [7] is on record as 3.12 µM. In addition, the “MIC RP73” value in data set [8] was 3.12 µM. The “antiviral activity against HCoV-229E” value with HCoV-229E is on record as “absence of efficacy”. Moreover, in data set [9], the minimum bactericidal concentration (MBC) is 3.12 µM and the MBC/MIC came out at 1. Further, in [10], the “solubility / aggregation at pH 7” value was “soluble at pH 7”. For the same substance, the “fluorescence signal” value in data set [11] was “lower, not significant reduction”. In addition, the “MIC S. typ.” value in data set [12] is listed as 6.25 µM. Further, the “MIC PAO1” value in [13] is 6.25 µM. Also, the “MIC K. pne.” value in data set [14] is given as 25 µM.
